According to patent US20100093863A1, “USE OF CITRULLINE FOR PREVENTING AN INCREASE IN PROTEIN CARBONYLATION AND FOR TREATING DISEASES RESULTING THEREFROM” (UNIVERSITE PARIS DESCARTESURE, priority 2007, published 2010):

Assays:
[1] = tested on: carbonylation of muscle proteins; test: Carbonylation of muscle proteins (DNPH assay, tibialis anterior) in malnourished-renourished rats; assay type: in vivo, Sprague-Dawley rats; conditions: rats aged 19 months, 12 weeks restricted diet, renourished one week with diet enriched with citrulline (5 g/kg/d); FIG. 1 column 4 versus column 3
Method: (§1) Male Sprague-Dawley rats (Charles River Laboratoires, L'Arbresles, France) aged 19 months are placed in individual cages in a thermostatically-controlled atmosphere (23°±1° C.) and subjected to a 12-h light-darkness cycle (darkness from 8 h to 20 h). The manager of the programme is authorized (no. 75.522) by the Ministry of Agriculture and Forestry to carry out this type of experiment. Moreover, the use and the treatment of the laboratory animals comply with legislation (D2001-486) and are in accordance with European legislation (Official Journal of the European Community L358 Dec. 18, 1986).
(§2) The rats are acclimatized for 2 weeks during which spontaneous food consumption is measured. […]
The processes of oxidation of the proteins affecting the structure of the amino acids which comprise them are complex and all give rise to the formation of carbonyl groups. For this reason it was decided to carry out an overall evaluation of the oxidation of the muscle proteins by quantifying the carbonylated derivatives from a sample of 300 mg of tibialis anterior. […] The solubilized proteins are separated into two equal fractions in order to have two cups containing the same quantity of proteins (1-1.5 mg/ml). One of the cups serves as a blank and the other to quantify the carbonyl groups. […]

[2] = tested on: carbonylation of the cerebral proteins; test: Carbonylation of cerebral proteins (DNPH assay, brain) in elderly rats; assay type: in vivo, Sprague-Dawley rats
Method: as §1, with “Laboratoires, L′Arbresles,” for “Laboratoires, L'Arbresles,”, “aged 25” for “aged 19”, “(23°±1° C.),” for “(23°±1° C.)”, “a 12-hour” for “a 12-h”
as §2
AANE group (n=4): the animals receive a standard diet rendered isonitrogenous compared with that of the CIT group by the addition of non-essential amino acids (alanine, asparagine, glycine, serine, histidine, and proline in equimolar quantities) for 1 month. […]
The processes of oxidation of the proteins affecting the structure of the amino acids which comprise them are complex and all give rise to the formation of carbonyl groups. For this reason it was decided to carry out an overall evaluation of the oxidation of the muscle proteins by quantifying the carbonylated derivatives from a sample of 1 g of brain. […] One of the cups serves as a blank and the other to quantify the carbonyl groups. […]

SMILES: NC(=O)NCCCC(N)C(=O)O (stereo not drawn) [citrulline, 2-amino-5-(carbamoylamino)pentanoic acid]
- increase in the carbonylation of muscle proteins accompanying malnutrition-renutrition [1]: this phenomenon disappears completely
- Carbonylated proteins ([2]; brain of rats aged 25 months, enriched standard diet for 1 month (CIT 1 g/kg/d; AANE isonitrogenous), Average ± ASD): 164 ± 12 µmol/g
- decrease in the carbonylation of the cerebral proteins ([2]; elderly healthy rats, diet enriched with CIT (1 g/kg/d, 1 month) versus AANE group): ~10%
